From article PMC2783949 (Bioorganic & medicinal chemistry, 2009)
“Also recorded” adds a separate entry of the source.

Key:
[1] = system: solid tumors; settings: mice; cited from earlier work
[2] = system: murine leukemias; settings: cited from earlier work
[3] = Oxidation of H-phosphinate 2 into PALA, 31P-NMR monitoring; format: physicochemical; settings: neutralized compound, over a period of two weeks
[4] = biological target: catalytic subunit of E. coli ATCase (Escherichia coli, UniProt P0A786); settings: for Inhibition Constant (Ki): pH 8.3; for mode of inhibition: relative to carbamyl phosphate
catalytic subunit of E. coli ATCase, sequence (P0A786 2-311): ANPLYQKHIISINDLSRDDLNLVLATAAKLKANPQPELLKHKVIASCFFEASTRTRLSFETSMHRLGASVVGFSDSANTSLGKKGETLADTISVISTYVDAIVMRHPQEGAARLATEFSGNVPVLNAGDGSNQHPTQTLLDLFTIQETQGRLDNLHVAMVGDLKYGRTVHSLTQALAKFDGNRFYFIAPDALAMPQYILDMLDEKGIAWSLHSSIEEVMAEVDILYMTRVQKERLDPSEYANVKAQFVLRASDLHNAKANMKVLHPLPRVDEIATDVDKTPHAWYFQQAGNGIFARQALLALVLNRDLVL

Compound	inhibition of ATCase (in words) [4]	also measured
O=C(O)C[C@H](NC(=O)CP(=O)(O)O)C(=O)O [Compound 1, N-phosphonacetyl-L-aspartate]		effect on solid tumors [1]: eradicated solid tumors in mice; effect on murine leukemias [2]: murine leukemias were resistant
O=C(O)C[C@H](NC(=O)C[PH](=O)O)C(=O)O [Compound 2]	good inhibitor; also recorded: submicromolar inhibitors	oxidation of 2 into PALA [3]: could not be detected
O=C(O)C[C@H](NC(=O)C[PH](=O)CO)C(=O)O (some centres unmarked) [Compound 3]	submicromolar inhibitors	
O=C(O)C[C@@H](C(=O)O)N1CCP(=O)(O)CC1 [Compound 14]	totally inactive	Inhibition Constant (Ki) [4]: inactive
O=C(O)C[C@@H](C(=O)O)N1CP(=O)(O)CC1=O [Compound 19, 2-(3-Hydroxy-3,5-dioxo-3l5-[1,3]azaphospholidin-1-yl)-succinic acid]	inactive	Inhibition Constant (Ki) [4]: inactive
O=C(O)C[C@H](NC(=O)CP(=O)(O)CCO)C(=O)O [Compound 22]	significant inhibitory activity	mode of inhibition [4]: uncompetitive
O=C(O)C[C@H](NC(=O)CP(=O)(O)CC(=O)O)C(=O)O [Compound 24]		mode of inhibition [4]: competitive inhibitor
O=C(O)C[C@@H](C(=O)O)N1CCP(=O)(O)CC1=O [Compound 27, 2-(4-Hydroxy-2,4-dioxo-4λ[5]-[1,4]azaphosphinan-1-yl)-succinic acid]	significant inhibition; also recorded: micromolar-level inhibitor	Km(CP)/Ki ([4]; Km of carbamyl phosphate over Ki of inhibitor): 28
O=C(O)C[C@H](NC(=O)OCP(=O)(O)O)C(=O)O [Compound 32, 2-Phosphonomethyl-oxycarbonylamino-succinic acid]	does not inhibit ATCase at all	Inhibition Constant (Ki) [4]: inactive
O=C(O)C[C@H](NC(=O)CC(C(=O)O)C(=O)O)C(=O)O [Compound 38]	none of the carboxylates 38, 40, and 42 displayed any significant inhibition	
O=C(O)CC(=O)N[C@@H](CC(=O)O)C(=O)O [Compound 40]	none of the carboxylates 38, 40, and 42 displayed any significant inhibition; also recorded: inactive	
O=C(O)CCC(=O)N[C@@H](CC(=O)O)C(=O)O [Compound 42]	none of the carboxylates 38, 40, and 42 displayed any significant inhibition	
NC(=O)OP(=O)(O)O [carbamyl phosphate]		Km ([4]; substrate of ATCase): 28 µM
